Source: US8569294B2, “2-(cyclic amino)-pyrimidone derivatives” (Mitsubishi Tanabe Pharma Corporation, priority 2006, dated 2013)

Biological target: T1, bovine cerebral TPK1 (Bos taurus, UniProt A0A3Q1MT31)
T1 construct: P-GS1 Phosphorylation by Bovine Cerebral TPK1; from tissue; host or cells: bovine cerebrum (brain)
Assay: Inhibitory activity against P-GS1 phosphorylation by bovine cerebral TPK1
Format: biochemical
Conditions: 41.7 μM [γ-32P] ATP, 25° C., 2 hours
Experimental: Inhibitory Activity of the Medicament of the Present Invention Against P-GS1 Phosphorylation by Bovine Cerebral TPK1
A mixture containing 100 mM MES-sodium hydroxide (pH 6.5), 1 mM magnesium acetate, 0.5 mM EGTA, 5 mM β-mercaptoethanol, 0.02% Tween 20, 10% glycerol, 12 μg/ml P-GS1, 41.7 μM [γ-^32P] ATP (68 kBq/ml), bovine cerebral TPK1 and a compound shown in Table (a final mixture contained 1.7% DMSO deriving from a solution of a test compound prepared in the presence of 10% DMSO) was used as a reaction system. The phosphorylation was started by adding ATP, and the reaction was conducted at 25° C. for 2 hours, and then stopped by adding 21% perchloric acid on ice cooling. The reaction mixture was centrifuged at 12,000 rpm for 5 minutes and adsorbed on P81 paper (Whatmann), and then the paper was washed four times with 75 mM phosphoric acid, three times with water and once with acetone. The paper was dried, and the residual radioactivity was measured using a liquid scintillation counter.

T1 sequence (A0A3Q1MT31 1-419): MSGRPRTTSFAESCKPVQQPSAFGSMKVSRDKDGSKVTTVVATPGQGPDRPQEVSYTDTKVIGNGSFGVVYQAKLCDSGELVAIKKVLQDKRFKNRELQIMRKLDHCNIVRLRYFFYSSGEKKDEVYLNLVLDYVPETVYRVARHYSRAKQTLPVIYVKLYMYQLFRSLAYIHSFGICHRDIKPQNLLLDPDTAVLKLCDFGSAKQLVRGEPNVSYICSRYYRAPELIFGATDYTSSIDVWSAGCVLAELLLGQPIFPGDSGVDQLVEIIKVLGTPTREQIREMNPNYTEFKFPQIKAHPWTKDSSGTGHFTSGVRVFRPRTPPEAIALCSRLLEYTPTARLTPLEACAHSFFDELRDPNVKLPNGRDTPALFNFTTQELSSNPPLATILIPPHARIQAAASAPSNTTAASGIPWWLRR

Compound	IC50
C[C@@H]1CN(C(=O)c2ccc(N(C)C)cc2)CCN1c1nc(-c2ccncn2)cc(=O)n1C [F69]	2.4 nM
Cn1c(N2CCO[C@H]3CCCC[C@@H]32)nc(-c2ccncn2)cc1=O (racemic) [B69, 1-Methyl-2-((4aRS,8aRS)-trans-octahydro-benzo[1,4]oxazin-4-yl)-1H-[4,4′]bipyrimidinyl-6-one]	4 nM
Cn1c(N2CCO[C@H]3c4ccccc4OC[C@H]32)nc(-c2ccncn2)cc1=O [B46]	2.5 nM
C[C@@H]1CN(c2ncccn2)CCN1c1nc(-c2ccncc2F)cc(=O)n1C [F56]	2.2 nM
COc1ccccc1NC1CC2CCC(C1)N2c1nc(-c2ccncc2F)cc(=O)n1C (centres unmarked) [B16]	2.8 nM
C[C@H](N)c1nc(-c2ccc(N3CCN(c4nc(-c5ccncc5)cc(=O)n4C)[C@H](C)C3)cc2)no1 [F148]	2.6 nM
C[C@@H]1COCCN1c1nc(-c2ccncc2F)cc(=O)n1C [B62]	7 nM
C[C@@H]1CN(c2ccccc2)CCN1c1nc(-c2ccncn2)cc(=O)n1C [F24]	1.4 nM
Cn1c(N2CC3CCC2C(c2ccccc2)C3)nc(-c2ccncc2)cc1=O (centres unmarked) [B9]	1.2 nM
Cn1c(N2C3CCCC2CC3)nc(-c2ccncc2F)cc1=O [B77]	9.8 nM
Cn1c(N2CCN3CCc4ccccc4C3C2)nc(-c2ccncc2)cc1=O (centres unmarked) [B109, 2-(1,3,4,6,7,11b-Hexahydro-pyrazino[2,1-a]isoquinolin-2-yl)-3-methyl-6-pyridin-4-yl-3H-pyrimidin-4-one]	14 nM
Cn1c(N2CCO[C@H]3c4ccccc4CC[C@@H]32)nc(-c2ccncc2F)cc1=O [B6]	1.7 nM
COc1cccc2c1CC[C@@H]1[C@H]2OCCN1c1nc(-c2ccncc2)cc(=O)n1C [B37]	1.5 nM
COc1cccc(N[C@@H]2CCN(c3nc(-c4ccncn4)cc(=O)n3C)C2)c1 [D42]	7.9 nM
COc1ccc2c(c1)CC[C@H]1[C@H]2OCCN1c1nc(-c2ccncc2F)cc(=O)n1C [B20]	1.1 nM
COc1ccccc1N1C[C@@H]2CN(c3nc(-c4ccncc4F)cc(=O)n3C)C[C@@H]2C1 [D16]	14 nM
Cn1c(N2CCCC2Cc2ccccc2)nc(-c2ccncc2F)cc1=O (centres unmarked) [D95]	5.6 nM
